Test results published in article PMC8207694, “Nucleoside transporter-guided cytarabine-conjugated liposomes for intracellular methotrexate delivery and cooperative choriocarcinoma therapy” (Journal of Nanobiotechnology, 2021).

What was measured:
[1] = Biodistribution of MTX in tumor-bearing mice; format: in vivo; settings: 2 h post-treatment
Protocol: JEG-3 tumor-bearing mice were also used for organ distribution studies. Animal groups and dosage were consistent with pharmacokinetic studies. For bio-distribution studies of MTX formulations, three animals per group were sacrificed at 2, 8, and 24 h following treatment, and tumors, lungs, kidneys, hearts, livers, and spleens were isolated, weighed, and frozen. These tissues were then homogenized, spun down for 1 min, rested for 45 min, and combined with 100 µl of 10% trichloroacetic acid solution followed by vortexing for 1 min, adding 5 mL of acetonitrile, and incubating for 10 min. Samples were then spun down for 10 min at 6,000 rpm, and supernatants were isolated, combined with mobile phase, and passed through 0.22 µm membrane filters. Finally, HPLC was applied to estimate the drug content of samples.

JEG-3 cells = test: Apoptosis (FITC Annexin V, flow cytometry); format: cell-based, human; settings: 1 μg/mL MTX-equivalent, 24 h; control 10.39 ± 2.78%
Protocol: Apoptosis of JEG-3 cells was detected using the FITC Annexin V Apoptosis Detection Kit I. The cells (10^5/well) were seeded in 6-well plates. Following culture for 24 h, cells were treated with culture medium or MTX formulation-contained culture medium at an equivalent MTX concentration (1 μg/mL) for another 24 h. All other protocols were conducted based on the provided directions. The cells were analyzed by flow cytometry.

For `CN(Cc1cnc2nc(N)nc(N)c2n1)c1ccc(C(=O)N[C@@H](CCC(=O)O)C(=O)O)cc1` [free MTX, Methotrexate], the “main organs of MTX distribution” value [1] was “found in the kidneys and liver” and the “apoptotic percentage of JEG-3 cells” value (JEG-3 cells) was 18.03 ± 2.25%.
